Drawing on BindingDB's records for patent US20230293517 (Adorx Therapeutics, 2023), this text covers Ki for 17 compounds.

Holding throughout (test): Adenosine Receptor Time-Resolved Fluorescence Resonance Energy Transfer (TRFRET) Binding Assay
A general note: In TR-FRET formats the signal depends on donor and acceptor labels being close together.

In one assay the target is T1, Adenosine receptor A1 (Homo sapiens, UniProt P30542).
T1 sequence (P30542 whole entry): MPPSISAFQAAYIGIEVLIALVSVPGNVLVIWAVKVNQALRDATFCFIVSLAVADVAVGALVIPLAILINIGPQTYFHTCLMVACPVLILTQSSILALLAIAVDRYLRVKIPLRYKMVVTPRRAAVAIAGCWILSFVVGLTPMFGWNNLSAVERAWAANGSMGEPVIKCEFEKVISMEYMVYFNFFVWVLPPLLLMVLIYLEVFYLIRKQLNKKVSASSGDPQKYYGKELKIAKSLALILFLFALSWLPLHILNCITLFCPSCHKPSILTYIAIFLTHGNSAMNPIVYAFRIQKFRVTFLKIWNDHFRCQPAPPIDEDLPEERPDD
On the procedure:
(§1) All FRET binding experiments were conducted at room temperature in white 384-well plates, in assay binding buffer containing 1×LabMed (Cisbio, France), 100 μg/mL saponin, 1% DMSO and 0.02% pluronic acid. Binding of the fluorescently labelled Adenosine receptor antagonist XAC (CA200645, FRET acceptor) to terbium-labelled A1, A2a, A2b and A3 adenosine receptors (FRET donors) was detected by time-resolved FRET due to the close proximity of the donor and acceptor in a binding event. To investigate the ability of unlabelled test compounds to bind to Adenosine A1, A2a, A2b and A3 receptors, dose response curves were constructed that determined the ability of a range of concentrations to inhibit the binding of 30 nM CA200645 to the A2b receptor and 100 nM CA200645 to the A1, A2a, and A3 receptor. Serial dilution (1:3 dilutions) of test compounds in neat DMSO and transfer of a 400 nL sample of test compound into the assay plate was carried out using the Mosquito (TTP Labtech, UK). The compound samples were incubated for 2 hours at room temperature with a fixed concentration of CA200645 defined for each receptor (see above) and CHO cell membranes containing the human Adenosine A1 (0.5 μg/well), A2a (0.3 μg/well), A2b (1 μg/well) or A3 (1 μg/well) receptor in 40 μL of assay buffer. Total and non-specific binding of CA200645 was determined in the absence and presence of 10 μM XAC, respectively. Following 2 hours incubation, the level of CA200645 binding was detected on a Pherastar FSX (BMG Labtech, Germany) using standard TR-FRET settings. […] FRET ratios were obtained by multiplying the acceptor/donor ratio value by 10,000. Specific binding was determined by subtracting the non-specific binding FRET ratio from the total binding FRET ratio.

The target of a further assay is T2, Adenosine receptor A2b (Homo sapiens, UniProt P29275).
T2 sequence (P29275 whole entry): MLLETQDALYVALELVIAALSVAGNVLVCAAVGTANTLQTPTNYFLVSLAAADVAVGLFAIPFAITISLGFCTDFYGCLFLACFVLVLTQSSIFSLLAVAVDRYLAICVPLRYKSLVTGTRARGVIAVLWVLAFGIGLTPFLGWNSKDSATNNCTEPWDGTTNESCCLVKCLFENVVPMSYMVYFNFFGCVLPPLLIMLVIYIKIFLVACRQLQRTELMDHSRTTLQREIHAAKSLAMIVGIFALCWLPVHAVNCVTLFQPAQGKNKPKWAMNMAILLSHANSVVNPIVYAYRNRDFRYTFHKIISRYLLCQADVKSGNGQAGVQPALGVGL
On the procedure:
as §1

Another assay deals with T3, Adenosine receptor A3 (Homo sapiens, UniProt P0DMS8).
T3 sequence (P0DMS8 whole entry): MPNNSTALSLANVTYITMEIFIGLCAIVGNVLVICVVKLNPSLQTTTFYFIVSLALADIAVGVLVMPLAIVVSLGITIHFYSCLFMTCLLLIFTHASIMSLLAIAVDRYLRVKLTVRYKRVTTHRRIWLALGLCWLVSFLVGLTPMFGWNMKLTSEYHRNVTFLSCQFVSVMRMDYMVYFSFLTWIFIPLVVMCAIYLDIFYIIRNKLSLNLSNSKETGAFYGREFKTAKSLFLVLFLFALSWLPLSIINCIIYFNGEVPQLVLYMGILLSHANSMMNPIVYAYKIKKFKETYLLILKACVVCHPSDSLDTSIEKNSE
On the procedure:
as §1

In the next assay the target is Adenosine receptor A2a (Homo sapiens, UniProt P29274). On the procedure:
as §1

Sequence of Adenosine receptor A2a (P29274 whole entry): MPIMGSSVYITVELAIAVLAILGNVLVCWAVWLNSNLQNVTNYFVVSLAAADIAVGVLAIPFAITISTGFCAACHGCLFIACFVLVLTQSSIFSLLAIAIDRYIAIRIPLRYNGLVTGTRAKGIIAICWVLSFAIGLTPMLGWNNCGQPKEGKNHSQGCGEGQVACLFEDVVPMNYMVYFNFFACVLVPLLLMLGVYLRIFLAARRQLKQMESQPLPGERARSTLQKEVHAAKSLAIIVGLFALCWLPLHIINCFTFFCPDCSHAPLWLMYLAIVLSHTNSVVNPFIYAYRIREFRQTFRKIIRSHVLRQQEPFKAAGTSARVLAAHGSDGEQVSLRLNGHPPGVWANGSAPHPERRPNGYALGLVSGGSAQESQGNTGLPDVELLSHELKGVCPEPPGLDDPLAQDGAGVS

For the compound `Cc1cc(-c2sc(NC(=O)N3CCC4(CC3)CNC(=O)N4C)nc2-c2cccc(C#N)c2)cc(C)n1` [US20230293517, Example 6.51], the figures for the Ki on Adenosine receptor A1, at Adenosine receptor A2b and on Adenosine receptor A3 were 120 nM, 1.2 nM and 318 nM, respectively.
Turning to `Cc1cc(-c2sc(NC(=O)N3CC(C)(O)C3)nc2-c2cccc(C#N)c2)c(F)c(C)n1` [US20230293517, Example 6.67], the inhibition constant (Ki) is 22 nM at Adenosine receptor A1, 2.06 nM at Adenosine receptor A2a, 1 nM on Adenosine receptor A2b and 201 nM at Adenosine receptor A3.
In the case of `Cc1cc(-c2sc(NC(=O)N3CCOC[C@@H]3CO)nc2-c2cccc(C#N)c2)cc(C)n1` [US20230293517, Example 6.76], the Ki on Adenosine receptor A1 was 39 nM; at Adenosine receptor A2a, 12.9 nM; at Adenosine receptor A2b, 21.7 nM; on Adenosine receptor A3, 321 nM.
Regarding `Cc1cc(-c2sc(NC(=O)N3CCOC(C(N)=O)C3)nc2-c2cccc(C#N)c2)cc(C)n1` (configuration not stated) [US20230293517, Example 4.14], the Ki at Adenosine receptor A1 came to 67 nM; on Adenosine receptor A2a, 2 nM; at Adenosine receptor A2b, 2.4 nM; at Adenosine receptor A3, 200 nM.
Consider `Cc1cc(-c2sc(NC(=O)N3CCC4(CC3)CNC(=O)O4)nc2-c2cccc(C#N)c2)cc(C)n1` [US20230293517, Example 6.56], for which the Ki turned out to be 75 nM on Adenosine receptor A1, 0.59 nM at Adenosine receptor A2a, 1.2 nM on Adenosine receptor A2b and 368 nM on Adenosine receptor A3.
Regarding `Cc1cc(-c2sc(NC(=O)N3CC[C@@H]3C)nc2-c2cccc(C#N)c2)cc(C)n1` [US20230293517, Example 6.72], the Ki on Adenosine receptor A1 was found to be 3 nM; on Adenosine receptor A2a it was 1.12 nM; on Adenosine receptor A2b, 1.2 nM; at Adenosine receptor A3, 94 nM.
As for `Cc1cc(-c2sc(NC(=O)N3CCC4(CC3)CNC4=O)nc2-c2cccc(C#N)c2)c(F)c(C)n1` [US20230293517, Example 6.69], the Ki on Adenosine receptor A1 was determined as 124 nM; on Adenosine receptor A2a, 0.94 nM; on Adenosine receptor A2b, 1.4 nM; on Adenosine receptor A3, 156 nM.
For `Cc1cc(-c2sc(NC(=O)N3CC4(CNC(=O)N4)C3)nc2-c2cccc(C#N)c2)cc(C)n1` [US20230293517, Example 6.57] the same measures were 32 nM, 0.88 nM, 1.3 nM and 212 nM.
For `Cc1cc(-c2sc(NC(=O)N3CCC4(CCCC(=O)N4)CC3)nc2-c2cccc(C#N)c2)cc(C)n1` [US20230293517, Example 6.58], the inhibition constant (Ki) worked out at 559 nM on Adenosine receptor A1, 2.27 nM on Adenosine receptor A2a, 7.8 nM at Adenosine receptor A2b and 848 nM at Adenosine receptor A3.
As to `Cc1cc(-c2sc(NC(=O)N3CC[C@H]3CO)nc2-c2cccc(C#N)c2)cc(C)n1` [US20230293517, Example 6.73], the Ki at Adenosine receptor A1 is 92 nM; at Adenosine receptor A2a, 2.51 nM; on Adenosine receptor A2b, 3.7 nM; on Adenosine receptor A3 it was 165 nM.
On to `Cc1cc(-c2sc(NC(=O)N3CCC[C@H]3CO)nc2-c2cccc(C#N)c2)cc(C)n1` [US20230293517, Example 6.71], for which the Ki was 110 nM at Adenosine receptor A1, 3.45 nM on Adenosine receptor A2a, 4.2 nM at Adenosine receptor A2b and 62 nM on Adenosine receptor A3.
Regarding `Cc1cc(-c2sc(NC(=O)N3CC(C)(C#N)C3)nc2-c2cccc(C#N)c2)c(F)c(C)n1` [US20230293517, Example 6.68], the Ki on Adenosine receptor A1 was 30 nM; at Adenosine receptor A2a it was 0.36 nM; at Adenosine receptor A2b it was 0.6 nM; on Adenosine receptor A3, 217 nM.
For `Cc1cc(-c2sc(NC(=O)N3CC4(CNC(=O)C4)C3)nc2-c2cccc(C#N)c2)cc(C)n1` [US20230293517, Example 6.55] the same measures were 86 nM, 0.6 nM, 2.4 nM and 273 nM.
With `Cc1cc(-c2sc(NC(=O)N3CC4(COC4)C3)nc2-c2cccc(C#N)c2C)cc(C)n1` [US20230293517, Example 6.79], the Ki was 177 nM on Adenosine receptor A1, 1.5 nM on Adenosine receptor A2a, 6 nM on Adenosine receptor A2b and 537 nM on Adenosine receptor A3.
Turning to `Cc1cc(-c2sc(NC(=O)N3CCC(C)(C#N)CC3)nc2-c2cccc(C#N)c2)c(F)c(C)n1` [US20230293517, Example 6.66], the Ki on Adenosine receptor A1 was 37 nM; on Adenosine receptor A2a, 0.43 nM; on Adenosine receptor A2b it was 0.6 nM; at Adenosine receptor A3, 1210 nM.
`Cc1cc(-c2sc(NC(=O)N3CC[C@@H]3CO)nc2-c2cccc(C#N)c2)cc(C)n1` [US20230293517, Example 6.91]: the Ki on Adenosine receptor A1 stood at 20 nM; on Adenosine receptor A2a it was 1.66 nM; at Adenosine receptor A2b it was 5.3 nM; on Adenosine receptor A3 it was 162 nM.
For `Cc1cc(-c2sc(NC(=O)N3CC4(CCOCC4)C3)nc2-c2cccc(C#N)c2)cc(C)n1` [US20230293517, Example 6.54], the inhibition constant Ki is 53 nM at Adenosine receptor A1, 0.38 nM on Adenosine receptor A2a, 1.9 nM on Adenosine receptor A2b and 268 nM on Adenosine receptor A3.

The Ki is the dissociation constant of the complex between target and ligand, obtained from inhibition or displacement.
